Laboratory results reported in PubChem BioAssay AID194 (DTP/NCI, 2004).
Where “and” joins values, the source holds several entries; their conditions need not be identical. Equal entries are not always repeated. Records with an inconclusive call do not appear.

System: BDF1 mice, B16 melanoma s.c., survival/tumor T/C
Assay: NCI In Vivo Anticancer Drug Screen. Data for tumor model B16 Melanoma (subcutaneous) in B6D2F1 (BDF1) mice
Description: The antitumor activity of compounds was measured in mice bearing transplantable tumors. Survival or tumor size were measured and the results are expressed as the measurement made in the treated group (T) divided by the measurement made in the vehicle treated control group (C). The tumor model used in this assay is B16 Melanoma (subcutaneous) in B6D2F1 (BDF1) mice

[1] = endpoint: median survival time, dose: 1.0 mg/kg/injection, schedule: Q01DX009 (ip), vehicle: saline, higher = longer survival
[2] = endpoint: median survival time, dose: 0.12 mg/kg/injection, schedule: Q01DX009 (ip), vehicle: saline, higher = longer survival

With CCOC(=O)C1CCC(NC(=O)N(CCCl)N=O)CC1 (centres undefined) the T/C (endpoint: median survival time, dose: 33.0 mg/kg/injection, schedule: Q01DX001 (ip), vehicle: gum acacia, higher = longer survival) was 196 % of control and the T/C (endpoint: median survival time, dose: 44.0 mg/kg/injection, schedule: Q01DX001 (ip), vehicle: gum acacia, higher = longer survival) was 192 % of control.

O=NN(CCCl)C(=O)NCCO was tested, and the T/C (endpoint: median survival time, dose: 2.59 mg/kg/injection, schedule: Q01DX007 (ip), vehicle: water, higher = longer survival) was 102 % of control and the T/C (endpoint: median survival time, dose: 4.32 mg/kg/injection, schedule: Q01DX007 (ip), vehicle: water, higher = longer survival) was 98 % of control.

CN(Cc1cnc2nc(N)nc(N)c2n1)c1c(Cl)cc(C(=O)NC(CCC(=O)O)C(=O)O)cc1Cl (centres undefined) was tested, and the T/C (endpoint: median survival time, dose: 60.0 mg/kg/injection, schedule: Q01DX009 (ip), vehicle: sodium bicarbonate, higher = longer survival) was 103 % of control, the T/C (endpoint: median survival time, dose: 90.0 mg/kg/injection, schedule: Q01DX009 (ip), vehicle: sodium bicarbonate, higher = longer survival) was 110 % of control and the T/C (endpoint: median survival time, dose: 135.0 mg/kg/injection, schedule: Q01DX009 (ip), vehicle: sodium bicarbonate, higher = longer survival) was 101 % of control. The T/C (endpoint: median survival time, dose: 600.0 mg/kg/injection, schedule: Q04DX003 (ip), vehicle: sodium bicarbonate, higher = longer survival) was 109 % of control, the T/C (endpoint: median survival time, dose: 670.0 mg/kg/injection, schedule: Q01DX001 (ip), vehicle: sodium bicarbonate, higher = longer survival) was 97 % of control and the T/C (endpoint: median survival time, dose: 900.0 mg/kg/injection, schedule: Q04DX003 (ip), vehicle: sodium bicarbonate, higher = longer survival) was 102 % of control. For the same compound, the T/C (endpoint: median survival time, dose: 1000.0 mg/kg/injection, schedule: Q01DX001 (ip), vehicle: sodium bicarbonate, higher = longer survival) was 102 % of control.

With Nc1nc([Se])c2ncn(C3OC(CO)C(O)C3O)c2n1 (centres undefined) the T/C [1] was 108 % of control, the T/C (endpoint: median survival time, dose: 2.0 mg/kg/injection, schedule: Q01DX009 (ip), vehicle: saline, higher = longer survival) was 98 % of control and 121 % of control and the T/C (endpoint: median survival time, dose: 4.0 mg/kg/injection, schedule: Q01DX009 (ip), vehicle: saline, higher = longer survival) was 121 % of control. The T/C (endpoint: median survival time, dose: 8.0 mg/kg/injection, schedule: Q01DX009 (ip), vehicle: saline, higher = longer survival) was 108 % of control and the T/C (endpoint: median survival time, dose: 16.0 mg/kg/injection, schedule: Q01DX009 (ip), vehicle: saline, higher = longer survival) was 111 % of control.

With CO[C@H]1/C=C/O[C@@]2(C)Oc3c(C)c(O)c4c(O)c(c(/C=N/N5C(C)CN(Cc6ccccc6)CC5C)c(O)c4c3C2=O)NC(=O)/C(C)=C\C=C\[C@H](C)[C@H](O)[C@@H](C)[C@@H](O)[C@@H](C)[C@H](OC(C)=O)[C@@H]1C (some centres undefined) the T/C (endpoint: median survival time, dose: 50.0 mg/kg/injection, schedule: Q02DX Z (oral), vehicle: Klucel (hydroxypropylcellulose) (HPC), higher = longer survival) was 101 % of control, the T/C (endpoint: median survival time, dose: 100.0 mg/kg/injection, schedule: Q02DX Z (oral), vehicle: Klucel (hydroxypropylcellulose) (HPC), higher = longer survival) was 89 % of control and the T/C (endpoint: median survival time, dose: 200.0 mg/kg/injection, schedule: Q02DX Z (oral), vehicle: Klucel (hydroxypropylcellulose) (HPC), higher = longer survival) was 86 % of control.

With OCCN1CCN(CC/C=C2/c3ccccc3Sc3ccc(C(F)(F)F)cc32)CC1 the T/C (endpoint: median survival time, dose: 1.8 micrograms/kg/injection, schedule: Q01DX009 (ip), vehicle: saline, higher = longer survival) was 93 % of control, the T/C (endpoint: median survival time, dose: 3.7 micrograms/kg/injection, schedule: Q01DX009 (ip), vehicle: saline, higher = longer survival) was 95 % of control and the T/C (endpoint: median survival time, dose: 7.5 micrograms/kg/injection, schedule: Q01DX009 (ip), vehicle: saline, higher = longer survival) was 109 % of control. The T/C (endpoint: median survival time, dose: 15.0 micrograms/kg/injection, schedule: Q01DX009 (ip), vehicle: saline, higher = longer survival) was 103 % of control and the T/C (endpoint: median survival time, dose: 30.0 micrograms/kg/injection, schedule: Q01DX009 (ip), vehicle: saline, higher = longer survival) was 91 % of control.

For c1ccc(-c2csc3c4ccccc4c4ccccc4[n+]23)cc1, the T/C (endpoint: median survival time, dose: 0.5 mg/kg/injection, schedule: Q01DX009 (ip), vehicle: suspension in saline, higher = longer survival) was 114 % of control and the T/C (endpoint: median survival time, dose: 1.0 mg/kg/injection, schedule: Q01DX009 (ip), vehicle: suspension in saline, higher = longer survival) was 124 % of control.

With CCO/C=C1\SC(=S)N(c2ccc(C(=O)O)cc2)C1=O the T/C (endpoint: median survival time, dose: 3.12 mg/kg/injection, schedule: Q01DX009 (ip), vehicle: Klucel (hydroxypropylcellulose) (HPC), higher = longer survival) was 110 % of control, the T/C (endpoint: median survival time, dose: 6.25 mg/kg/injection, schedule: Q01DX009 (ip), vehicle: Klucel (hydroxypropylcellulose) (HPC), higher = longer survival) was 101 % of control and the T/C (endpoint: median survival time, dose: 12.5 mg/kg/injection, schedule: Q01DX009 (ip), vehicle: Klucel (hydroxypropylcellulose) (HPC), higher = longer survival) was 118 % of control. The T/C (endpoint: median survival time, dose: 50.0 mg/kg/injection, schedule: Q01DX009 (ip), vehicle: Klucel (hydroxypropylcellulose) (HPC), higher = longer survival) was 121 % of control and the T/C (endpoint: median survival time, dose: 100.0 mg/kg/injection, schedule: Q01DX009 (ip), vehicle: Klucel (hydroxypropylcellulose) (HPC), higher = longer survival) was 121 % of control.

In the case of Nc1ncnc2c1ccn2C1OC(CO)C(O)C1O (centres undefined), the T/C (endpoint: median survival time, dose: 0.25 mg/kg/injection, schedule: Q01DX009 (ip), vehicle: saline, higher = longer survival) is reported as 111 % of control, the T/C (endpoint: median survival time, dose: 0.5 mg/kg/injection, schedule: Q01DX009 (ip), vehicle: Klucel (hydroxypropylcellulose) (HPC), higher = longer survival) is reported as 106 % of control and the T/C (endpoint: median survival time, dose: 0.5 mg/kg/injection, schedule: Q01DX009 (ip), vehicle: saline, higher = longer survival) is reported as 106 % of control. For the same compound, the T/C (endpoint: median survival time, dose: 1.0 mg/kg/injection, schedule: Q01DX009 (ip), vehicle: Klucel (hydroxypropylcellulose) (HPC), higher = longer survival) was 110 % of control and the T/C [1] was 99 % of control.

For NC(C/[N+]([O-])=N/O)C(=O)O (centres undefined), the T/C (endpoint: median survival time, dose: 8.75 mg/kg/injection, schedule: Q01DX010 (ip), vehicle: alkali diluted with saline, higher = longer survival) was 96 % of control, the T/C (endpoint: median survival time, dose: 8.78 mg/kg/injection, schedule: Q01DX010 (ip), vehicle: alkali diluted with saline, higher = longer survival) was 100 % of control and the T/C (endpoint: median survival time, dose: 13.2 mg/kg/injection, schedule: Q01DX010 (ip), vehicle: alkali diluted with saline, higher = longer survival) was 152 % of control and 154 % of control. The T/C (endpoint: median survival time, dose: 29.6 mg/kg/injection, schedule: Q01DX010 (ip), vehicle: alkali diluted with saline, higher = longer survival) was 93 % of control and 96 % of control, the T/C (endpoint: median survival time, dose: 40.0 mg/kg/injection, schedule: Q01DX009 (ip), vehicle: Klucel (hydroxypropylcellulose) (HPC), higher = longer survival) was 103 % of control and the T/C (endpoint: median survival time, dose: 44.4 mg/kg/injection, schedule: Q01DX010 (ip), vehicle: alkali diluted with saline, higher = longer survival) was 104 % of control. For the same compound, the T/C (endpoint: median survival time, dose: 66.7 mg/kg/injection, schedule: Q01DX010 (ip), vehicle: alkali diluted with saline, higher = longer survival) was 122 % of control, the T/C (endpoint: median survival time, dose: 300.0 mg/kg/injection, schedule: Q01DX001 (ip), vehicle: Klucel (hydroxypropylcellulose) (HPC), higher = longer survival) was 87 % of control and the T/C (endpoint: median survival time, dose: 300.0 mg/kg/injection, schedule: Q04DX003 (ip), vehicle: Klucel (hydroxypropylcellulose) (HPC), higher = longer survival) was 93 % of control. The T/C (endpoint: median survival time, dose: 500.0 mg/kg/injection, schedule: Q01DX001 (ip), vehicle: Klucel (hydroxypropylcellulose) (HPC), higher = longer survival) was 97 % of control.

CC1(C)N=C(N)N=C(N)N1c1ccc(OCC(=O)N2CCOCC2)c(Cl)c1 was tested, and the T/C (endpoint: median survival time, dose: 50.0 mg/kg/injection, schedule: Q01DX009 (ip), vehicle: saline, higher = longer survival) was 103 % of control and the T/C (endpoint: median survival time, dose: 100.0 mg/kg/injection, schedule: Q01DX009 (ip), vehicle: saline, higher = longer survival) was 114 % of control.

COc1cccc2c1C(=O)c1c(O)c3c(c(O)c1C2=O)C[C@@](O)(C(C)=O)C[C@@H]3OC1CC(N)C(O)C(C)O1 (some centres undefined) was tested, and the T/C [2] was 87 % of control and 105 % of control, the T/C (endpoint: median tumor weight (est.), dose: 0.12 mg/kg/injection, schedule: Q01DX009 (ip), vehicle: saline, higher = larger tumour) was 64 % of control and the T/C (endpoint: median tumor weight (est.), dose: 0.25 mg/kg/injection, schedule: Q01DX009 (ip), vehicle: saline, higher = larger tumour) was 86 % of control and 100 % of control. For the same compound, the T/C (endpoint: median tumor weight (est.), dose: 0.5 mg/kg/injection, schedule: Q01DX009 (ip), vehicle: saline, higher = larger tumour) was 55 % of control.

With O=c1n(CC2CO2)c(=O)n(CC2CO2)c(=O)n1CC1CO1 (centres undefined) the T/C (endpoint: median survival time, dose: 20.0 mg/kg/injection, schedule: Q01DX011 (ip), vehicle: saline, higher = longer survival) was 109 % of control and the T/C (endpoint: median survival time, dose: 40.0 mg/kg/injection, schedule: Q01DX011 (ip), vehicle: saline, higher = longer survival) was 155 % of control.

For CC[C@]1(O)C[C@H]2CN(CCc3c([nH]c4ccccc34)[C@@](C(=O)OC)(c3cc4c(cc3OC)N(C=O)[C@H]3[C@@](O)(C(=O)OC)[C@H](OC(C)=O)[C@]5(CC)C=CCN6CC[C@]43[C@@H]65)C2)C1, the T/C (endpoint: median survival time, dose: 0.06 mg/kg/injection, schedule: Q01DX009 (ip), vehicle: saline, higher = longer survival) was 100 % of control and 115 % of control, the T/C [2] was 104 % of control and 121 % of control and the T/C (endpoint: median survival time, dose: 0.13 mg/kg/injection, schedule: Q01DX009 (ip), vehicle: saline, higher = longer survival) was 100 % of control. The T/C (endpoint: median survival time, dose: 0.7 mg/kg/injection, schedule: Q04DX003 (ip), vehicle: saline, higher = longer survival) was 93 % of control, the T/C (endpoint: median survival time, dose: 1.0 mg/kg/injection, schedule: Q04DX003 (ip), vehicle: saline, higher = longer survival) was 100 % of control and the T/C (endpoint: median survival time, dose: 1.5 mg/kg/injection, schedule: Q04DX003 (ip), vehicle: saline, higher = longer survival) was 113 % of control.

CCC(c1ccc(OC(=O)Cc2ccc(N(CCCl)CCCl)cc2)cc1)C(CC)c1ccc(OC(=O)Cc2ccc(N(CCCl)CCCl)cc2)cc1 (centres undefined) was tested, and the T/C (endpoint: median survival time, dose: 80.0 mg/kg/injection, schedule: Q01DX009 (ip), vehicle: saline with Tween-80, higher = longer survival) was 102 % of control, the T/C (endpoint: median survival time, dose: 120.0 mg/kg/injection, schedule: Q01DX009 (ip), vehicle: saline with Tween-80, higher = longer survival) was 106 % of control and the T/C (endpoint: median survival time, dose: 180.0 mg/kg/injection, schedule: Q01DX009 (ip), vehicle: saline with Tween-80, higher = longer survival) was 93 % of control. The T/C (endpoint: median survival time, dose: 270.0 mg/kg/injection, schedule: Q01DX009 (ip), vehicle: saline with Tween-80, higher = longer survival) was 102 % of control and the T/C (endpoint: median survival time, dose: 405.0 mg/kg/injection, schedule: Q01DX009 (ip), vehicle: saline with Tween-80, higher = longer survival) was 90 % of control.

For O=c1cnn(C2OC(CO)C(O)C2O)c(=O)[nH]1 (centres undefined), the T/C (endpoint: median survival time, dose: 75.0 mg/kg/injection, schedule: Q01DX009 (ip), vehicle: saline, higher = longer survival) was 117 % of control, the T/C (endpoint: median survival time, dose: 150.0 mg/kg/injection, schedule: Q01DX009 (ip), vehicle: saline, higher = longer survival) was 104 % of control and the T/C (endpoint: median survival time, dose: 300.0 mg/kg/injection, schedule: Q01DX009 (ip), vehicle: saline, higher = longer survival) was 90 % of control. For the same compound, the T/C (endpoint: median survival time, dose: 600.0 mg/kg/injection, schedule: Q01DX009 (ip), vehicle: saline, higher = longer survival) was 101 % of control.
